Consider ten compounds from patent US11020381B2, “Biaryloxy derivatives as TTX-S blockers” (RaQualia Pharma Inc., priority 2017, dated 2021).

Assay [1] has as its target T1, Nav1.7 (Homo sapiens (Human), UniProt Q15858). The assay is described as follows: EFS-FRET assay. Particulars: CHO cells expressing human Nav1.7 channels; read-out: IC50 against Nav1.7. It counts as cell-based. The method, then: This screen is used to determine the effects of compounds on human Nav1.7 channels, utilizing electrical field stimulation (EFS) system in 96-well plate format on FDSS (Hamamatsu Photonics) platform. The changes of membrane potential are monitored with FRET dye pair, DiSBAC2(3) and PTS 18.
CHO (Chinese hamster ovary) cells expressing human Nav1.7 channels are grown in T225 flasks, in a 5% CO2 humidified incubator to about 80% confluence. Media composition consists of HAM/F12 with Glutamax I, 10% FCS, 100 units/mL penicillin and 100 microgram/mL hygromycin.
Seed each cell lines (1×10^5 cells/well) into 96-well plates prior to experimentation.
Incubate at 37° C. in 5% CO2 for 24 hours.
Wash each well with assay buffer (140 mM NaCl, 4.5 mM KCl, 10 mM D-Glucose, 2 mM CaCl2, 1 mM MgCl2, 10 mM HEPES, pH 7.4 adjusted with NaOH) twice.
Add 1st loading solution containing 10 microM PTS 18 and 0.06% Pluronic F-127 in assay buffer.
Incubate the plate at rt in dark for 1 hour.
Remove 1st loading solution and add 2nd loading solution containing 12.5 microM DiSBAC2(3), 1.25 mM Xylene Fast Yellow and 0.0075% Pluronic F-127 in assay buffer.
Place the plate under the dark at rt for 25 minutes.
Add compound solutions into the assay plate.
Set the assay plate in FDSS and place an EFS device on the plate.
Measure EFS-induced fluorescent response by FDSS.
The data are analyzed and reported as normalized ratios of intensities measured at […]. The process of calculating these ratios is performed as follows:
(§1) This analysis is performed using a computerized specific program designed for FDSS generated data. Fluorescence ratio values are plotted using XLfit to determine an IC50 value for each compound.

In assay [2] the target is T1, Nav1.7. In words: Affinity to resting state (Kr) and inactivated state (Ki), manual patch clamp. It counts as cell-based. Particulars: read-out: Ki (inactivated state) against Nav1.7. The text has this:
Affinity to Resting State (Kr) and Inactivated State (Ki) of Test Compound
The normalized steady-state inactivation curve is constructed using 2 sec (for vehicle) or 60 sec (for drugs) conditioning pulse to different potentials followed immediately by the test pulse to −10 mV. Peak currents are plotted as fraction of the maximum current at the conditioning potentials ranging from −120 mV to 0 mV for Nav1.7. V1/2 and k values are estimated from Boltzmann fits. The affinity of test compound to resting state of Na channels (Kresting or Kr) is assessed by depolarizing test pulse from a negative holding potential of −130 mV, where virtually all channels are in the resting state. Kr value is calculated by a conventional 1:1 binding model: Kresting(Kr)={[drug]Imax,drug/(Imax,control−Imax,drug)} [Math.6] where Kresting (=Kr) is a dissociation constant for the resting state and [drug] is compound concentration. Imax,control and Imax,drug are peak currents in the absence and presence of compound, respectively.
Interaction of the compound with the channel on inactivated state is evaluated by the following equation: Kinact(Ki)={[drug]/((1+[drug]/Kr)*exp(−ΔV/k)−1)} [Math.7] where Kinact (=Ki) is a dissociation constant for the inactivated state. ΔV is the compound-induced voltage shift of half maximal voltage of Boltzmann curve and k is the slop factor on presense of compound.

The target of assay [3] is T2, Nav1.5 (Homo sapiens (Human), UniProt Q14524). The assay is described as follows: FRET assay. Particulars: HEK293 cells expressing human Nav1.5 channels; read-out: activity (IC50) against Nav1.5. It counts as cell-based. Here is the method: This screen is used to determine the effects of compounds on human Nav1.5 channels, utilizing the cell imaging technology by Hamamatsu Photonics's Functional Drug Screening System (FDSS). The changes of membrane potential are monitored with fluorescent membrane potential dye pair, DiSBAC2(3) and CC2-DMPE, using FRET technology.
HEK293 cells expressing human Nav1.5 channels are grown in T225 flasks, in a 5% CO2 humidified incubator to about 80% confluence. HEK293 cells expressing human Nav1.5 channels are maintained in Dulbecco's Modified Eagle Medium (high glucose) supplemented with 10% fetal calf serum (FCS), 100 units/mL Penicillin, 100 microgram/mL Streptomycin and 500 microgram/mL Geneticine. […]
The data is analyzed and reported as normalized ratios of intensities measured in the 465 nm and 575 nm channels. […]
“FI465B”=the mean of fluorescence intensity as baseline (before Na^+ ligand addition) at 465 nm
“FI575B”=the mean of fluorescence intensity as baseline (before Na^+ ligand addition) at 575 nm
“FI465Max” maximum fluorescence intensity at 465 nm after Na^+ stimulation
“FI575Min”=minimum fluorescence intensity at 575 nm after Na^+ stimulation
as §1

The target in assay [4] is T1, Nav1.7. In words: Manual patch clamp assay, two pulse protocol. It counts as cell-based. Here is the method: Manual patch clamp recordings are conducted at RT using the voltage-clamp amplifier (Axon Instruments or HEKA electronik). Electrodes are pulled with P-97 electrode puller (Sutter Instrument). The electrode resistances are 1-3 MOhm when intercellular solution is filled. Currents are lowpass filtered between 2-5 kHz and digitally sampled at 10 kHz.
The extracellular and intercellular solutions for human Nav1.7 and NaV1.5 consist of the following composition:
Extracellular recording solution (mM): 135 NaCl, 5 KCl, 2 CaCl2, 1 MgCl2, 10 HEPES, and 10 Glucose, pH 7.4 adjusted with NaOH; and
Intercellular solution (mM): 120 CsF, 15 NaCl, 10 EGTA, and 10 HEPES, pH 7.2 adjusted with CsOH.
After whole-cell configuration is achieved, cell is monitored at least 10 minutes to allow cell dialysis with pipette solution. To evaluate of inhibitory effects of test compounds, the cells are clamped at −120 or −130 mV. […]
Peak currents evoked by Test 1 and Test 2 pulses are sampled with Clampex (Axon Instruments) or Pulse+Pulse Fit (HEKA). Averaged peak currents under vehicle or test compounds are calculated from 3 data points at end of each condition. Inhibitory effect (% inhibition) of test compound is calculated as bellow; % inhibition=[1−Averaged peak current (Compound)/Averaged peak current (Vehicle)]×100 [Math.5] […]

Assay [5] concerns the target T2, Nav1.5. The assay is described as follows: Automated electrophysiology assay (Qpatch HTX). It counts as cell-based. To be noted: Test 2 pulse, read-out: Inactivated IC50 against Nav1.5. The method, then: Automated Electrophysiology Assay
Automated patch clamp recordings are conducted for evaluation of inhibitory effect against Nav1.5 with the Qpatch HTX system according the manufacturer's specifications (Sophion).
The extracellular and intercellular solutions consist of the following composition:
Extracellular recording solution (mM): 137 NaCl, 4 KCl, 1.8 CaCl2, 1 MgCl2, 10 HEPES, and 10 Glucose, pH 7.4 adjusted with NaOH
Intercellular solution (mM): 135 CsF, 10 NaCl, 5 EGTA, and 10 HEPES, pH 7.3 adjusted with CsOH.
To evaluate of inhibitory effects of test compounds against Nav1.5, the cells are clamped at −110 mV. […]
Peak currents evoked by Testl and Test 2 pulses are sampled with Qpatch assay software (Sophion). Averaged peak currents under vehicle or test compounds are calculated from 3 data points at end of each condition. Inhibitory effect (% inhibition) of test compound is calculated as bellow; % inhibition=[1−Averaged peak current (Compound)/Averaged peak current (Vehicle)]×100 [Math.4]
Inhibitory effects (% inhibition) of each concentration are measured from at least 2 cells. Averaged inhibitory effects are plotted against test concentration and IC50 values at Test 1 (Closed IC50) or Test 2 (Inactivated IC50) are calculated with Hill equation, respectively. […]

In assay [6] the target is T1, Nav1.7. To be noted: data cited from the table at page 103 in WO2012/007868; read-out: IC50 against Nav1.7 channel; cited from earlier work.

Where “and” joins values, the source holds several entries; their conditions need not be identical. Equal values may be shown once. Read-outs that look alike come from different tables or passages of the source.

T1 sequence (Q15858 whole entry): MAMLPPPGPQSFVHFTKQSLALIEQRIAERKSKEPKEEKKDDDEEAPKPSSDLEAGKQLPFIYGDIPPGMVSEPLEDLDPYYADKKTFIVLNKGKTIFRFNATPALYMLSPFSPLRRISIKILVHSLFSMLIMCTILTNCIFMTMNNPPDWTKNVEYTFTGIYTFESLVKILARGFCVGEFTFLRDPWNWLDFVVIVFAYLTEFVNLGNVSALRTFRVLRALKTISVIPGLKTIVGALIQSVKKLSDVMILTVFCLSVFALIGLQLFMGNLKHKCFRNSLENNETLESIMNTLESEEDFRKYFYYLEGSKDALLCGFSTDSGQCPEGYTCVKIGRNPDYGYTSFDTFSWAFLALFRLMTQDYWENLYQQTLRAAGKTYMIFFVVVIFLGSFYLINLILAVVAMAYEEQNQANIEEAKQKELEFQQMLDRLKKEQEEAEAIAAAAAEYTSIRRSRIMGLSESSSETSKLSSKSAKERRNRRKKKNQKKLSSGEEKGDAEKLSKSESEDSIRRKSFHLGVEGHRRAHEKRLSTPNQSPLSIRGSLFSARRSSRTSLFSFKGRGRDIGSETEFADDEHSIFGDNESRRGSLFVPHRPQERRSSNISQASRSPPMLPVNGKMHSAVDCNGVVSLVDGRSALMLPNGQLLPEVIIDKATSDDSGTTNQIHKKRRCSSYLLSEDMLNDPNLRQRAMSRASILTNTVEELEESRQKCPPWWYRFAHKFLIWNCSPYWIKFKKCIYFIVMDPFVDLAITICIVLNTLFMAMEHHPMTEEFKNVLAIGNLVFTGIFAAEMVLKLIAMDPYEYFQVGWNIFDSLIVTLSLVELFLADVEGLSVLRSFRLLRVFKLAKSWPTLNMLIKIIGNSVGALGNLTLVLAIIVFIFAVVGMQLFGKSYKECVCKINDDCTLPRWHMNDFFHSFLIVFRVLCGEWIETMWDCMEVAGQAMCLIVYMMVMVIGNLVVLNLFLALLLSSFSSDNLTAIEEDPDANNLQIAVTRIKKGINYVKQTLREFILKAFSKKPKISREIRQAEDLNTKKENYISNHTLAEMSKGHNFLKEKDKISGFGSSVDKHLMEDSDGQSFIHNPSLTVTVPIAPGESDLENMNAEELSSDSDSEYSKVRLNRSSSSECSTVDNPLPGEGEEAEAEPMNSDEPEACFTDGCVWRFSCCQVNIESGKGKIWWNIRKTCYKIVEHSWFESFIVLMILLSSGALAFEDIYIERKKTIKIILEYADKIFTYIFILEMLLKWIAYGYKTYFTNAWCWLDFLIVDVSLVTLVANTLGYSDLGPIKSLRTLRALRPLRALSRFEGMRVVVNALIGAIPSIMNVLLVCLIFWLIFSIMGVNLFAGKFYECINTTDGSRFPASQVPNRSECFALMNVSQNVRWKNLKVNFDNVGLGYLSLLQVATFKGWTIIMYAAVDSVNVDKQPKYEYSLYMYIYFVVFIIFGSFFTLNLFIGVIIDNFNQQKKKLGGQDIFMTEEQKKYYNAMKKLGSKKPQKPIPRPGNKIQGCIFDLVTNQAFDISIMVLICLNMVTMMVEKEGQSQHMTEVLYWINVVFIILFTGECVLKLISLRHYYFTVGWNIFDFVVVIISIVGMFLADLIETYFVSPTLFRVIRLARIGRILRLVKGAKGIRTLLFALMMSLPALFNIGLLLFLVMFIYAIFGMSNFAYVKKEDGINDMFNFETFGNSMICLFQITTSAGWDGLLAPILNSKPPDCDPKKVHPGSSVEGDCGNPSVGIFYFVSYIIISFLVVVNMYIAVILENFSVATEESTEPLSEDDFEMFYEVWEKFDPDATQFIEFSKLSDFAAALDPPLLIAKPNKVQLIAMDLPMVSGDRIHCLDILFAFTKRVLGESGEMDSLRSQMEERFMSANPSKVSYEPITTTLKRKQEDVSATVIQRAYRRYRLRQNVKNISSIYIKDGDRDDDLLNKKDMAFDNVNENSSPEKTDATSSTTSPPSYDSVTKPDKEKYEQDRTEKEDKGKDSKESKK
T2 sequence (Q14524 whole entry): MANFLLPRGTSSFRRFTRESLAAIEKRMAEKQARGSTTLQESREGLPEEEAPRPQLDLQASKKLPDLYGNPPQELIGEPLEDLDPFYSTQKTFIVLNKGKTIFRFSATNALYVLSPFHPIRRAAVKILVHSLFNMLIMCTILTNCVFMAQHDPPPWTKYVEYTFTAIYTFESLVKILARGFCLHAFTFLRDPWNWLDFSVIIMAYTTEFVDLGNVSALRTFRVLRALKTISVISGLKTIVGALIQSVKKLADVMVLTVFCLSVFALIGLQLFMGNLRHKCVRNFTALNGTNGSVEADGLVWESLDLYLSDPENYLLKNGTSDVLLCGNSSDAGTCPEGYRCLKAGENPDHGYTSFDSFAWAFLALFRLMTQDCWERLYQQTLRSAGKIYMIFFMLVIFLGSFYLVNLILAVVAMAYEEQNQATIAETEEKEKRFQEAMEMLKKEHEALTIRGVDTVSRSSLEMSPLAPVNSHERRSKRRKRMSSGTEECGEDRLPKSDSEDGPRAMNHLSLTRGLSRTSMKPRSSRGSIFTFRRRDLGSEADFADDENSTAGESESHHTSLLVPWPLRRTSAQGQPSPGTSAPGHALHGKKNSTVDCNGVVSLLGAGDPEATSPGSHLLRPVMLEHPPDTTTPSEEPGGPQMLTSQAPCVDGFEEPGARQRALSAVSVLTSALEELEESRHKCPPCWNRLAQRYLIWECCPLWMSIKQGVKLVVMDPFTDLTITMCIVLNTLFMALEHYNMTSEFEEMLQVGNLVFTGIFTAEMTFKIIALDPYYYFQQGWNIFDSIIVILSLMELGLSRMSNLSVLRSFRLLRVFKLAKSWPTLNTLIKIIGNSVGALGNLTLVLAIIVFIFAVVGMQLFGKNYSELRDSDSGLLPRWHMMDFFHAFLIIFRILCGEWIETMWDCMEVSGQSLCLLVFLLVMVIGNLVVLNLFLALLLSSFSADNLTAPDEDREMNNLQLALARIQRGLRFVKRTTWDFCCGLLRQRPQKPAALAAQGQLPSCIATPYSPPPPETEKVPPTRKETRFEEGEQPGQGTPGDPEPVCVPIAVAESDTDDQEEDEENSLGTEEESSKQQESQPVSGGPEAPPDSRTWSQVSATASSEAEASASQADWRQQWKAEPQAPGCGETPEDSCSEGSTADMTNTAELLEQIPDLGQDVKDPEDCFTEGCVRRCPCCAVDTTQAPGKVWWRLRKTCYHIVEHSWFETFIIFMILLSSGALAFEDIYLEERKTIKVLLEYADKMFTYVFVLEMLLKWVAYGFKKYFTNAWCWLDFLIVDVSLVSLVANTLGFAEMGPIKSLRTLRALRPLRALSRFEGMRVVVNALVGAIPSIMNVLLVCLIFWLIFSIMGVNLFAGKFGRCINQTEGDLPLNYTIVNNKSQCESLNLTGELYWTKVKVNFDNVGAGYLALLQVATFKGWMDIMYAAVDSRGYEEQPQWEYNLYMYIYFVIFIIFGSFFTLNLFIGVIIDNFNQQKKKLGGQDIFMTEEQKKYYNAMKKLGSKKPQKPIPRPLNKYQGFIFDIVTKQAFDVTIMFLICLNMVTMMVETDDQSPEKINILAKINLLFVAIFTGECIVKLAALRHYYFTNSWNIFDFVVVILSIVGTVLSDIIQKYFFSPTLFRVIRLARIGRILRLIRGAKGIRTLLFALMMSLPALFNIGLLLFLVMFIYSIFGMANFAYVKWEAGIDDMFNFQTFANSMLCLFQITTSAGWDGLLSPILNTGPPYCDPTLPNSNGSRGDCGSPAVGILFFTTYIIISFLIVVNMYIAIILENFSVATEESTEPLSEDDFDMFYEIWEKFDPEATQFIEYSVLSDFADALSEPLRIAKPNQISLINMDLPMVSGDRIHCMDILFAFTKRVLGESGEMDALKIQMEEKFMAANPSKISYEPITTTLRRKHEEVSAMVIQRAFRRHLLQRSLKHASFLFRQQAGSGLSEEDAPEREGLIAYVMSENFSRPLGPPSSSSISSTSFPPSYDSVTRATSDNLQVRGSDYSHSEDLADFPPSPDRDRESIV

Regarding `CS(=O)(=O)NC(=O)c1ccc(COc2cccc(-c3ccc(OCC4CC4)nc3)c2)cc1` [Example 2, 4-((3-(6-(cyclopropylmethoxy)pyridin-3-yl)phenoxy)methyl)-N-(methylsulfonyl)benzamide], the IC50 on Nav1.7 [1] is 84 nM and 80 nM; on Nav1.5 [3], > 30000 nM. Moreover, the Ki at Nav1.7 [2] was found to be 22 nM. Also, the “selectivity for Nav1.7 over Nav1.5” value on Nav1.7 [4] was found to be 75 fold.

Regarding `CS(=O)(=O)NC(=O)c1ccc(COc2cccc(-c3ccc(OCC4CC4)nc3)c2)c(F)c1` [Example 14, 4-((3-(6-(cyclopropylmethoxy)pyridin-3-yl)phenoxy)methyl)-3-fluoro-N-(methylsulfonyl)benzamide], on Nav1.7 [1], the IC50 was 50 nM. For `CS(=O)(=O)NC(=O)c1cc(F)c(COc2cccc(-c3ccc(OCC4CC4)nc3)c2)cc1F` [Example 24, 4-((3-(6-(cyclopropylmethoxy)pyridin-3-yl)phenoxy)methyl)-2,5-difluoro-N-(methylsulfonyl)benzamide], on Nav1.7 [1], the IC50 is 50 nM. In the case of `CS(=O)(=O)NC(=O)c1ccc(COc2cc(F)cc(-c3ccc(OCC4CC4)nc3)c2)cc1` [Example 30, 4-((3-(6-(cyclopropylmethoxy)pyridin-3-yl)-5-fluorophenoxy)methyl)-N-(methylsulfonyl)benzamide], at Nav1.5 [5], the IC50 is > 30000 nM. Take `CS(=O)(=O)NC(=O)c1ccc(COc2cccc(-c3cc(CC4CC4)on3)c2)c(F)c1` [Example 84, 4-((3-(5-(cyclopropylmethyl)isoxazol-3-yl)phenoxy)methyl)-3-fluoro-N-(methylsulfonyl)benzamide]: the IC50 at Nav1.7 [1] worked out at 50 nM. In the case of `CS(=O)(=O)NC(=O)c1ccc(COc2cccc(C3CCNCC3)c2)cc1` [WO2012/007868 Example 35], on Nav1.7 [6], the IC50 is > 3000 nM. `Cc1c(OCc2cc(F)c(C(=O)NS(C)(=O)=O)cc2F)cccc1-n1cccn1` [WO2012/007868 Example 102]: the 50% inhibitory concentration (IC50) at Nav1.7 [6] is > 3000 nM. Regarding `CS(=O)(=O)NC(=O)c1ccc(COc2cccc(-c3cccnc3)c2)cc1` [reference compound (A), reference compound], at Nav1.7 [1], the IC50 is > 3000 nM. Consider `CS(=O)(=O)NC(=O)c1ccc(COc2cccc(-c3cccnc3)c2)c(F)c1` [reference compound (B), reference compound], for which, at Nav1.7 [1], the IC50 came to 1300 nM. On the same count and under the same terms, the figure for `CS(=O)(=O)NC(=O)c1cc(F)c(COc2cccc(-c3cccnc3)c2)cc1F` [reference compound (C), reference compound] is 600 nM.
